Results from the supplement of paper PMC11061612.

Tests used:
Assay in all cases: combination Emax (second highest fraction inhibited in the dose matrix, 72 h); higher = more inhibition; extreme values may be limits of the assay
[1] = tested on: K-562 (Chronic Myelogenous Leukemia)
Procedure, shortened: (§1)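 Cell lines grown in DMEM/F12 or RPMI with 10% FBS were plated in 1536-well plates and held 24 hours at 37°C, 5% CO2 before 72 hours of exposure to two-drug dose matrices, with DMSO typically at 0.2%. CellTiter-Glo 2.0 luminescence gave viability, which was converted to inhibition. Vehicle wells were set to 0 and blank wells to 1. Combination Emax is the second-highest inhibition in the matrix, and Bliss excess is the observed combination effect minus the expected EA + EB − EA·EB, where EA and EB are the single-agent effects.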

[2] = tested on: ES1 (Ewing's Sarcoma)
Procedure, shortened: as §1

[3] = tested on: EVSA-T (Breast Carcinoma)
Procedure, shortened: as §1

[4] = tested on: TC-71 (Ewing's Sarcoma)
Procedure, shortened: as §1

[5] = tested on: MOLT-16 (T-Lymphoblastic Leukemia)
Procedure, shortened: as §1

[6] = tested on: DiFi (Colorectal Carcinoma)
Procedure, shortened: as §1

[7] = tested on: CAMA-1 (Breast Carcinoma)
Procedure, shortened: as §1

[8] = tested on: TOV-112D (Ovarian Carcinoma)
Procedure, shortened: as §1

[9] = tested on: MKN28 (Gastric Carcinoma)
Procedure, shortened: as §1

[10] = tested on: SW837 (Colorectal Carcinoma)
Procedure, shortened: as §1

[11] = tested on: P12-ICHIKAWA (T-Lymphoblastic Leukemia)
Procedure, shortened: as §1

[12] = tested on: TE-6 (Esophageal Squamous Cell Carcinoma)
Procedure, shortened: as §1

[13] = tested on: WM-115 (Melanoma)
Procedure, shortened: as §1

[14] = tested on: NCI-H1792 (Lung Adenocarcinoma)
Procedure, shortened: as §1

[15] = tested on: DND-41 (T-Lymphoblastic Leukemia)
Procedure, shortened: as §1

[16] = tested on: MFM-223 (Breast Carcinoma)
Procedure, shortened: as §1

[17] = tested on: U251 (Low Grade Glioma)
Procedure, shortened: as §1

[18] = tested on: COLO-678 (Colorectal Carcinoma)
Procedure, shortened: as §1

[19] = tested on: WIL2-NS (Non-Cancerous)
Procedure, shortened: as §1

Compound: NC1(C(=O)N[C@@H](CCO)c2ccc(Cl)cc2)CCN(c2ncnc3[nH]ccc23)CC1 [Capivasertib] + CCN(CCO)CCCOc1ccc2c(Nc3cc(CC(=O)Nc4cccc(F)c4)[nH]n3)ncnc2c1 [AZD2811] (first compound max 10 µM, 7x7, partner max 1 µM)
- combination Emax [1]: 0.245
- combination Emax [2]: 0.905
- combination Emax [3]: 0.979
- combination Emax [4]: 0.854
- combination Emax [5]: 1
- combination Emax [6]: 0.658
- combination Emax [7]: 0.768
- combination Emax [8]: 0.42
- combination Emax [9]: 0.206
- combination Emax [10]: 0.261
- combination Emax [11]: 1
- combination Emax [12]: 0.673
- combination Emax [13]: 0.583
- combination Emax [14]: 0.34
- combination Emax [15]: 0.224
- combination Emax [16]: 0.918
- combination Emax [17]: 0.444
- combination Emax [18]: 0.222
- combination Emax [19]: 0.641

Compound: COc1cc2ncnc(Nc3ccc(F)c(Cl)c3)c2cc1OCCCN1CCOCC1 [Gefitinib] + CC(C)n1c(=O)n(C)c2cnc3cc(F)c(-c4ccc(OCCCN5CCCCC5)nc4)cc3c21 [AZD1390] (first compound max 10 µM, 7x7, partner max 0.3 µM)
- combination Emax [1]: 0.13
- combination Emax [2]: 0.353
- combination Emax [3]: 0.27
- combination Emax [4]: 0.183
- combination Emax [5]: 0.363
- combination Emax [6]: 0.919
- combination Emax [7]: 0.111
- combination Emax [8]: 0.276
- combination Emax [9]: 0.0764
- combination Emax [10]: 0.128
- combination Emax [11]: 0.144
- combination Emax [12]: 0.685
- combination Emax [13]: 0.139
- combination Emax [14]: 0.231
- combination Emax [15]: 0.115
- combination Emax [16]: 0.121
- combination Emax [17]: 0.0432
- combination Emax [18]: 0.306
- combination Emax [19]: 0.397

Compound: NC1(C(=O)N[C@@H](CCO)c2ccc(Cl)cc2)CCN(c2ncnc3[nH]ccc23)CC1 [Capivasertib] + CC(C)n1c(=O)n(C)c2cnc3cc(F)c(-c4ccc(OCCCN5CCCCC5)nc4)cc3c21 [AZD1390] (first compound max 10 µM, 7x7, partner max 0.3 µM)
- combination Emax [1]: 0.33
- combination Emax [2]: 0.452
- combination Emax [3]: 0.975
- combination Emax [4]: 0.263
- combination Emax [5]: 0.719
- combination Emax [6]: 0.592
- combination Emax [7]: 0.665
- combination Emax [8]: 0.175
- combination Emax [9]: 0.145
- combination Emax [10]: 0.25
- combination Emax [11]: 0.489
- combination Emax [12]: 0.599
- combination Emax [13]: 0.565
- combination Emax [14]: 0.179
- combination Emax [15]: 0.165
- combination Emax [16]: 0.864
- combination Emax [17]: 0.284
- combination Emax [18]: 0.146
- combination Emax [19]: 0.682

Compound: COc1nnc2ccc(N3CCC(c4ccc(OCCN5CCN(C)C(=O)[C@H]5C)cc4)CC3)nn12 [AZD5153] + C=CCn1c(=O)c2cnc(Nc3ccc(N4CCN(C)CC4)cc3)nc2n1-c1cccc(C(C)(C)O)n1 [AZD1775] (first compound max 1 µM, partner max 1 µM)
- combination Emax [1]: 0.616
- combination Emax [2]: 0.686
- combination Emax [3]: 0.942
- combination Emax [4]: 0.935
- combination Emax [5]: 1
- combination Emax [6]: 0.727
- combination Emax [7]: 0.453
- combination Emax [8]: 0.815
- combination Emax [9]: 0.525
- combination Emax [10]: 0.715
- combination Emax [11]: 1
- combination Emax [12]: 0.731
- combination Emax [13]: 0.338
- combination Emax [14]: 0.83
- combination Emax [15]: 0.941
- combination Emax [16]: 0.538
- combination Emax [17]: 0.799
- combination Emax [18]: 0.531
- combination Emax [19]: 0.878

Compound: NC1(C(=O)N[C@@H](CCO)c2ccc(Cl)cc2)CCN(c2ncnc3[nH]ccc23)CC1 [Capivasertib] + Cn1cnc2c(F)c(Nc3ccc(Br)cc3Cl)c(C(=O)NOCCO)cc21 [Selumetinib] (first compound max 10 µM, 7x7, partner max 10 µM)
- combination Emax [1]: 0.425
- combination Emax [2]: 0.52
- combination Emax [3]: 0.947
- combination Emax [4]: 0.438
- combination Emax [5]: 0.805
- combination Emax [6]: 0.905
- combination Emax [7]: 0.693
- combination Emax [8]: 0.313
- combination Emax [9]: 0.241
- combination Emax [10]: 0.603
- combination Emax [11]: 0.748
- combination Emax [12]: 0.736
- combination Emax [13]: 0.885
- combination Emax [14]: 0.504
- combination Emax [15]: 0.233
- combination Emax [16]: 0.894
- combination Emax [17]: 0.494
- combination Emax [18]: 0.544
- combination Emax [19]: 0.771

Compound: Cn1cnc2c(F)c(Nc3ccc(Br)cc3Cl)c(C(=O)NOCCO)cc21 [Selumetinib] + CC(C)n1c(=O)n(C)c2cnc3cc(F)c(-c4ccc(OCCCN5CCCCC5)nc4)cc3c21 [AZD1390] (first compound max 10 µM, 7x7, partner max 0.3 µM)
- combination Emax [1]: 0.168
- combination Emax [2]: 0.0951
- combination Emax [3]: 0.174
- combination Emax [4]: 0.237
- combination Emax [5]: 0.277
- combination Emax [6]: 0.641
- combination Emax [7]: 0.0892
- combination Emax [8]: 0.138
- combination Emax [9]: 0.137
- combination Emax [10]: 0.567
- combination Emax [11]: 0.305
- combination Emax [12]: 0.388
- combination Emax [13]: 0.411
- combination Emax [14]: 0.378
- combination Emax [15]: 0.157
- combination Emax [16]: 0.0965
- combination Emax [17]: 0.141
- combination Emax [18]: 0.502
- combination Emax [19]: 0.252
